These results are taken from patent publication US12221447B2, “Methods and compositions for drugs to treat ophthalmic diseases” (Duke University, priority 2018, dated 2025).

The target in data set [1] is T1, CaMKK2 auto-phosphorylation (Homo sapiens, UniProt Q96RR4).
T1 construct: endogenous in cells; host or cells: HEK293
The data set is described as follows: HEK293 cells, ionomycin stimulation, Western blot for phospho-CaMKK2. Format: cell-based. Conditions: 10 μM; for inhibition of CaMKK2 auto-phosphorylation (densitometry): 2 hours pre-treatment, ionomycin 0.5 μg/mL 15 minutes; for inhibition of CaMKK2 auto-phosphorylation compared to STO-609: versus STO-609 10 μM. The procedure:
(§1) Preliminary screening of Compounds EY301-EY305 was performed in vitro in HEK293 cells (all tested at 10 μM). In brief, HEK293 cells were cultured to sub confluence in […] complete media and 1% fetal bovine serum (FBS), incubated at 37° C. in 5% CO2. Cultured cells were then switched to serum-free media overnight prior to initiation of experiments. […] Cells were then stimulated with the calcium ionophore ionomycin (0.5 μg/mL) for 15 minutes, following which the cells were washed, harvested, and lysed for recovery of total protein using standard methods. Following standard protein gel electrophoresis, Western blot was then performed for either phospho-CaMKK2 (FIG. 4A) or phospho-AMPK (FIG. 4B) for each condition. Studies were performed in triplicate.

Data set [2] has as its system AMPK phosphorylation. The data set can be described thus: HEK293 cells, ionomycin stimulation, Western blot for phospho-AMPK. Format: cell-based. Conditions: 10 μM; for inhibition of phospho-AMPK (densitometry): 2 hours pre-treatment, ionomycin 0.5 μg/mL 15 minutes; for inhibition of phospho-AMPK compared to STO-609: versus STO-609 10 μM. The procedure:
as §1

Data set [3] deals with wild-type BALB/c mice. The data set can be described thus: NonGLP toxicology, in vivo tolerability of topically administered SMICs. The conditions noted are these: topical 1.5 mg/mL twice daily for 14 days. The method, then: NonGLP toxicology studies of locally administered candidate SMICs EY1006.A001.B001 and EY1001.A002.B001 was assessed in 2-3-month old wild-type BALB/c mice. assessing local toxicity by clinical assessment and by histopathology. Both compounds were topically administered at 1.5 mg/mL twice daily for 14 days.

The test system of data set [4] is OGVHD mouse model. The data set can be described thus: Mouse model of OGVHD, proof-of-concept with topical lead SMICs (Example 11). Type of data set: in vivo, mice. The conditions noted are these: for prevention of signs of OGVHD versus vehicle and prednisolone: 1.5 mg/mL topical daily for two weeks, p<0.05 vs vehicle or prednisolone. The procedure: Preclinical proof-of-concept studies in a mouse model of OGVHD were performed to assess the clinical efficacy of topical administration of the two most promising candidate SMICs identified in Examples 6 and 7, EY1006.A001.B001 and EY1001.A002.B001. […] Briefly, the OGVHD mouse model was initiated by isolation of bone marrow and splenic T cells from 2-3-month old mice C57BL/6J donor mice, and transplantation of isolated bone marrow and T cells to recipient 2-3-month old BALB/c mice, following ablation of recipient bone marrow. Recipient BALB/c mice were then allowed to convalesce for approximately 14 days before initiation of further experimental procedures.
OGVHD clinical findings include lid margin edema, lid crusting, tear film disruption, conjunctival chemosis, and keratopathy. These findings were clinically graded following one week and two weeks of treatment using a quantitative scoring system adapted from previously published studies (33, 34). […] By contrast, vehicle control-treated eyes had lid margin swelling and scarring with lash and periocular fur loss, eyelid crusting, chemosis, abnormal tear film, and keratopathy. […] For this scoring system and experiment Mild disease was score 0-5, moderate disease was score 6-10 and severe disease was score >10.

The conditions of data set [5]: in vivo; cited from earlier work.
The conditions of data set [6]: with sonication; cited from earlier work.
The target in data set [7] is T2, aryl hydrocarbon receptors (Homo sapiens, UniProt P35869).
T2 sequence (P35869 11-848): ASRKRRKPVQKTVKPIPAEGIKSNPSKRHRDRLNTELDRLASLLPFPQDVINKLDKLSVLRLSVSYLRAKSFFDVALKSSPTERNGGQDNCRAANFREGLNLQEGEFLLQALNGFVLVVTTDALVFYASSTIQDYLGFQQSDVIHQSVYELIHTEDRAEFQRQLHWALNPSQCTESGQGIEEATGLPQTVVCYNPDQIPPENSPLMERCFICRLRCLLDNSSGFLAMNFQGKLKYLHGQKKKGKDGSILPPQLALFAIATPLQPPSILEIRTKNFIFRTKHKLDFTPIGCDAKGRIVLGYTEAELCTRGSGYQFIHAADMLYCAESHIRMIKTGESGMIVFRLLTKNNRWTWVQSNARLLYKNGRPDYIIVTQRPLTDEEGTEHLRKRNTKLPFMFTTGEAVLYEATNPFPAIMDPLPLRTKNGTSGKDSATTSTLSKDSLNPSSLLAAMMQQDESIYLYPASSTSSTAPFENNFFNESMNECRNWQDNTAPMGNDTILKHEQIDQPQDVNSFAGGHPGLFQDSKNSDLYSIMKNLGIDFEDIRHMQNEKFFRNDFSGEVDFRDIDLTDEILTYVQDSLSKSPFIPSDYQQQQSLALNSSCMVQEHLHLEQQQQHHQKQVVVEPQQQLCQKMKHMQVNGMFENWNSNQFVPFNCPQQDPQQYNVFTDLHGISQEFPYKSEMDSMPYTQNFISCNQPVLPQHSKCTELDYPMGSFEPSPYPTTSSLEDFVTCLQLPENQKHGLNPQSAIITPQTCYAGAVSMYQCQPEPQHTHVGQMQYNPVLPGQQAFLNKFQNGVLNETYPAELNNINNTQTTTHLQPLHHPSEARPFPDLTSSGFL
The conditions noted are these: suspected off-target effect; cited from earlier work.

For data set [8], the system named is experimental OGVHD. The source says: Ocular graft versus host disease (OGVHD), a disease in which T cells and macrophages are known to play key pathogenic roles, represents a model ocular inflammatory disease since A) it is known to share overlapping pathologic and clinical features with other, more common ocular inflammatory diseases (i.e. aqueous tear deficiency, meibomian gland dysfunction, uveitic disease, others); and B) the at-risk population is well defined since it occurs in individuals undergoing allogeneic bone marrow transplant for hematologic malignancies, autoimmune diseases, and other disorders. As such, experimental models of OGVHD represent attractive systems in which to study the therapeutic potential of targeting and inhibiting CaMKK2 for ophthalmic diseases. […] In brief, 2-3-month old mice of C57BL/6 and BALB/c strains are used for this model. C57BL/6 mice are sacrificed, following which RPMI-1640 medium is flushed in the diaphyseal channel of both recovered tibias and femurs. […]
Following BMT+T cell transfer, recipient BALB/c mice were allowed to convalesce for 14 days prior to initiation of experimental procedures. […] At the conclusion of the treatment period, eyes were then graded (in masked fashion) for signs of OGVHD and scored according to a modified clinical grading system (33, 34). […]

T1 sequence (Q96RR4 whole entry): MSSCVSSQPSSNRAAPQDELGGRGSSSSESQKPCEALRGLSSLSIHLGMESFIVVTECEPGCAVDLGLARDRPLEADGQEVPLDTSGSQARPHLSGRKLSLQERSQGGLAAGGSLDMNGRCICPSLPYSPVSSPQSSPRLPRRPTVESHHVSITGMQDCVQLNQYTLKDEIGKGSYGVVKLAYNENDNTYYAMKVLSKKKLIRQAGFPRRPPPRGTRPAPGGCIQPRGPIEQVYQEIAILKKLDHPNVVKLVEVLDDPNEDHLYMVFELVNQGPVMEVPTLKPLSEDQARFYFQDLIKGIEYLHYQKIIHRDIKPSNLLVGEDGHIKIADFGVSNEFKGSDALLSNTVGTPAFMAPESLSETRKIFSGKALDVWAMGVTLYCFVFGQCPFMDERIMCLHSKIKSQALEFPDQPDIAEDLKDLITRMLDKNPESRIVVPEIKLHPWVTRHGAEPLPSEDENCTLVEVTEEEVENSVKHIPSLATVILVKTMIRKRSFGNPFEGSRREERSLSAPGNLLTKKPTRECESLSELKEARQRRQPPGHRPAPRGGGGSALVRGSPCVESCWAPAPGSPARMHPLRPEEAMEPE

`O=C(O)c1ccc2c(c1)[nH]c(=O)n1c3ccccc3nc21` [Compound 1]: in data set [1], the “inhibition of CaMKK2 auto-phosphorylation (densitometry)” value is recorded as “robust inhibition” and the “inhibition of CaMKK2 auto-phosphorylation compared to STO-609” value is “more effective as compared to STO-609”.

Take `Cn1c(=O)n2c3ccccc3nc2c2ccc(C(=O)O)cc21` [Compound 3]: in data set [2], the “inhibition of phospho-AMPK (densitometry)” value is “partial inhibition” and the “inhibition of phospho-AMPK compared to STO-609” value is recorded as “comparable to STO-609”. Besides, the “inhibition of CaMKK2 auto-phosphorylation (densitometry)” value in data set [1] was “robust inhibition”.

Turning to `CCn1c(=O)n2c3ccccc3nc2c2ccc(C(=O)O)cc21` [Compound 4], in data set [2], the “inhibition of phospho-AMPK (densitometry)” value is “partial inhibition” and the “inhibition of phospho-AMPK compared to STO-609” value is on record as “comparable to STO-609”. In data set [1], the “inhibition of CaMKK2 auto-phosphorylation (densitometry)” value is on record as “robust inhibition” and the “inhibition of CaMKK2 auto-phosphorylation compared to STO-609” value is recorded as “more effective as compared to STO-609”.

As to `CC(C)Cn1c(=O)n2c3ccccc3nc2c2ccc(C(=O)O)cc21` [Compound 5], in data set [2], the “inhibition of phospho-AMPK (densitometry)” value is given as “partial inhibition” and the “inhibition of phospho-AMPK compared to STO-609” value is “comparable to STO-609”. Further, the “inhibition of CaMKK2 auto-phosphorylation (densitometry)” value in data set [1] is “robust inhibition”.

For the molecule `O=C(O)c1ccc2c(c1)n(CCF)c(=O)n1c3ccccc3nc21` [Compound 7], the systemic toxicity entry in data set [3] is given as “no evidence of failure to thrive or mortality”. Besides, in data set [4], the “prevention of signs of OGVHD versus vehicle and prednisolone” value is “superior to vehicle and prednisolone”. Besides, the “severity of clinical OGVHD findings” value in data set [4] (1.5 mg/mL topical daily, from day 14 post-BMT for two weeks, n=5) is reported as “reduced severity of clinical OGVHD findings with efficacy similar to STO-609”.

`O=C(O)c1ccc2c3c1cccc3c(=O)n1c3ccccc3nc21` [STO-609, 7-oxo-7H-benzimidazo[2,1-a]benz[de]isoquinoline-3-carboxylic acid]: the oral bioavailability result in data set [5] was “poor oral bioavailability”. Moreover, the “maximum concentration in DMSO” value in data set [6] is listed as 10 mM. Further, the “off-target effect on aryl hydrocarbon receptors” value in data set [7] is on record as “activation of aryl hydrocarbon receptors”. In addition, in data set [8] (STO-609 1.5 mg/mL local ocular, daily for 2 weeks from day 14 post-BMT, vehicle median score 17), the “severity of OGVHD, median score” value stood at 5. In addition, in data set [8] (stated as demonstrated and established for STO-609), the “reduction in OGVHD score” value worked out at 50%. Further, the “prevention of signs of OGVHD versus vehicle and prednisolone” value in data set [4] is “superior to vehicle and prednisolone”.
